Assay results reported in patent publication US5576439A, “Dihydropyridinecarboxylic acid anhydrides” (Ciba-Geigy Corporation, priority 1994, dated 1996).

How the values were obtained:
[1] = system: ET-1 induced contractile response in isolated rabbit aorta; experiment: Inhibition of ET-1 induced contractile response in isolated rabbit aorta; details: 10 μM, 30 minute pretreatment
Experimental: (§1) The cardiovascular effects of ET-1 inhibitory activity can be determined as follows:
(§2) A 30 minute pretreatment with test compound (0.1-10 μM) is utilized to determine inhibition of the ET-1 induced contractile response in isolated rabbit aorta. The maximal response to ET-1 is measured at 0.1, 1 and 10 μM, respectively. Similar pretreatment with test compound (1 μM) is utilized to determine the effects of phenylephrine or KCl induced contraction, an indication that the specificity of hemodynamic affects is caused by intereaction with the endothelin receptor. A 5 minute pretreatment with test compound (10 mg/kg, i.v.) is also used to assess the effects on pressor response and attenuation of the depressor response to ET-1 (0.25 nmol/kg iv.) in the conscious rat.

ETA receptor [2] = target: T1, ETA receptor (Sus scrofa, UniProt Q29010); experiment: Inhibition of [^125 I] ET-1 binding to porcine thoracic aorta membranes
T1 construct: porcine thoracic aorta membranes (ETA receptor); from tissue; host or cells: porcine thoracic aorta membranes
T1 sequence (Q29010 21-427): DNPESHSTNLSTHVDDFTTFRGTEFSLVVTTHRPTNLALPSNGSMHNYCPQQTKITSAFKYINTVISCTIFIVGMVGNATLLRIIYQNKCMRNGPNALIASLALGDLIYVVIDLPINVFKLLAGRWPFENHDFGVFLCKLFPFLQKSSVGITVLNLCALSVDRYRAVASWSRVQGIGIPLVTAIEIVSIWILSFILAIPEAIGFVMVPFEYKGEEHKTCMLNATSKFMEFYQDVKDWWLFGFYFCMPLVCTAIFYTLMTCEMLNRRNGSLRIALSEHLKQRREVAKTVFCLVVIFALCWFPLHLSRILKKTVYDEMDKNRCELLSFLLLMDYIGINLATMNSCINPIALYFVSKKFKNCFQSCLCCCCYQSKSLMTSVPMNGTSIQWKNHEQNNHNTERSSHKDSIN
Experimental: (§3) Inhibition of the binding of [^125 I] ET-1 to porcine thoracic aorta membranes (ETA receptor) is determined according to Cioffi et al, J. Pharmacol. Exp. Ther. 262, 611 (1992); similarly inhibition of binding of [^125 I] ET-1 to rat cerebellum membranes (ETB receptor).

ETB receptor = target: T2, ETB receptor (Rattus norvegicus, UniProt P21451); experiment: Inhibition of [^125 I] ET-1 binding to rat cerebellum membranes
T2 construct: rat cerebellum membranes (ETB receptor); from tissue; host or cells: rat cerebellum membranes
T2 sequence (P21451 27-442): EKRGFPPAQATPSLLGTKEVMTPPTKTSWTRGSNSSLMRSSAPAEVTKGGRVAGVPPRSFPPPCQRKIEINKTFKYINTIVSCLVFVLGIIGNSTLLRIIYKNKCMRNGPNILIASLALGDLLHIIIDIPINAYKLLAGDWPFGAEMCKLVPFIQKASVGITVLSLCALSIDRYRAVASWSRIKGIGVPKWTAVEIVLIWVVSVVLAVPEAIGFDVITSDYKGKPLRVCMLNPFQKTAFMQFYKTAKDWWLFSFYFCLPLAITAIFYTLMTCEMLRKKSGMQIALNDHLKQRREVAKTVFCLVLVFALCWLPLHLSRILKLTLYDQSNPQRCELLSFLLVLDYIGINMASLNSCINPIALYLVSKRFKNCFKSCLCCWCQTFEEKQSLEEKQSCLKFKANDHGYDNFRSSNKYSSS
Experimental: as §3

ETA receptor [3] = target: T3, ETA receptor (Rattus norvegicus, UniProt P26684); experiment: ETA receptor inhibitory activity by release of [^3 H]-inositol from labeled A7r5 cells; assay type: cell-based
T3 construct: labeled A7r5 cells; endogenous in cells; host or cells: A7r5 cells
T3 sequence (P26684 21-426): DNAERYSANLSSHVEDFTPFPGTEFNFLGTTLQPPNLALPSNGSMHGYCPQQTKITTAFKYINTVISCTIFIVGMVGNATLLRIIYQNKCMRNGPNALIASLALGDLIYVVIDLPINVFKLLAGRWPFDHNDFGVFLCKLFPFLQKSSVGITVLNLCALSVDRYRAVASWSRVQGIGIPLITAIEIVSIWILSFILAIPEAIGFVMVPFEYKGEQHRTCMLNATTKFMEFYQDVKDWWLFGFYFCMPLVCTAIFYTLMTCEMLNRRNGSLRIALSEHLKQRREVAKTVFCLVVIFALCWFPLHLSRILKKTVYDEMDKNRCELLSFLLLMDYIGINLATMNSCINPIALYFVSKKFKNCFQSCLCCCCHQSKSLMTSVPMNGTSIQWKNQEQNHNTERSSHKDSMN
From the text: For instance the ETA receptor inhibitory activity can be determined by measuring the release of [^3 H]-inositol from [^3 H]-inositol labeled A7r5 cells, as previously described by Cioffi et at, J. Cardiovasc. Pharmacol. 22 (Suppl. 8), S-168 (1993).

[4] = system: increase in blood pressure induced by ET-1; experiment: Effect on pressor response to ET-1 in the conscious rat; assay type: in vivo; details: 10 mg/Kg i.v., 5 minute pretreatment, ET-1 0.25 nmol/kg i.v.
Experimental: as §1, §2

COC(=O)C1=C(C)NC(C)=C(C(=O)OC(=O)C2=C(C)NC(C)=C(C(=O)OC)[C@@H]2c2cccc([N+](=O)[O-])c2)[C@@H]1c1cccc([N+](=O)[O-])c1 [Example 1, meso-1,4-dihydro-5-methoxycarbonyl-2,6-dimethyl-4-(3-nitrophenyl)-3-pyridine-carboxylic acid anhydride]
inhibition of ET-1 induced contractile response [1]: 77% | IC50 (ETA receptor [2]): ~16 nM | IC50 (ETB receptor): ~300 nM | IC50 (ETA receptor [3]): ~140 nM | antagonism of increase in blood pressure induced by ET-1 [4]: completely antagonizes
